Source: patent US20130172320A1, “PYRIDO [4,3-B] INDOLE AND PYRIDO [3,4-B] INDOLE DERIVATIVES AND METHODS OF USE” (priority 2010, published 2013)

How the values were obtained:
[1] = molecular target: T1, human recombinant serotonin (5-Hydroxytryptamine) 5-HT6 receptor (Homo sapiens, UniProt P50406); test: Serotonin 5-HT6 radioligand binding ([3H]LSD); settings: compound at 0.1 μM; read-out: Percentage inhibition of ligand binding, Serotonin (0.1 μM) 5-HT6
T1 construct: expressed in transfected cells; host or cells: human HeLa cells
Description: To evaluate in radioligand binding assays the activity of compounds of the invention, human recombinant serotonin (5-Hydroxytryptamine) 5-HT6 receptor expressed in human HeLa cells (Monsma, F. Jr. et al, Mol. Pharmacol. 43:320, 1993) in a modified Tris-HCl buffer (50 mM Tris-HCl, pH 7.4, 150 mM NaCl, 2 mM Ascorbic Acid, 0.001% BSA) was used. Compounds of the invention were incubated with 1.5 nM [3H]Lysergic acid diethylamide (LSD) for 120 min at 37° C. Non-specific binding was estimated in the presence of 5 μM Serotonin (5-HT). Receptor proteins were filtered and washed, the filters were then counted to determine [3H]LSD specifically bound. Compounds were screened at 1 μM or lower, using 1% DMSO as vehicle. Biochemical assay results are presented as the percent inhibition of specific binding in Table 4.

[2] = molecular target: human recombinant histamine H1 receptor (Homo sapiens, UniProt P35367); test: Histamine H1 radioligand binding ([3H]Pyrilamine); settings: compound at 0.1 μM; 1.2 nM [3H]Pyrilamine; read-out: Binding data (Percentage inhibition) Histamine H1 (0.1 μM)
Description: To evaluate in radioligand binding assays the activity of compounds of the invention, human recombinant histamine H1 receptor expressed in Chinese hamster ovary (CHO) cells (De Backer, M. et al, Biochem. Biophys. Res. Comm. 197(3):1601, 1993) in a modified Tris-HCl buffer (50 mM Tris-HCl, pH 7.4, 2 mM MgCl2, 100 mM NaCl, 250 mM Sucrose) was used. Compounds of the invention were incubated with 1.2 nM [^3H]Pyrilamine for 180 min at 25° C. Non-specific binding was estimated in the presence of 1 μM Pyrilamine. Receptor proteins were filtered and washed, the filters were then counted to determine [^3H]Pyrilamine specifically bound. Compounds were screened at 1 μM or lower, using 1% DMSO as vehicle. Biochemical assay results are presented as the percent inhibition of specific binding in Table 2.

Chain of human recombinant histamine H1 receptor (P35367 whole entry): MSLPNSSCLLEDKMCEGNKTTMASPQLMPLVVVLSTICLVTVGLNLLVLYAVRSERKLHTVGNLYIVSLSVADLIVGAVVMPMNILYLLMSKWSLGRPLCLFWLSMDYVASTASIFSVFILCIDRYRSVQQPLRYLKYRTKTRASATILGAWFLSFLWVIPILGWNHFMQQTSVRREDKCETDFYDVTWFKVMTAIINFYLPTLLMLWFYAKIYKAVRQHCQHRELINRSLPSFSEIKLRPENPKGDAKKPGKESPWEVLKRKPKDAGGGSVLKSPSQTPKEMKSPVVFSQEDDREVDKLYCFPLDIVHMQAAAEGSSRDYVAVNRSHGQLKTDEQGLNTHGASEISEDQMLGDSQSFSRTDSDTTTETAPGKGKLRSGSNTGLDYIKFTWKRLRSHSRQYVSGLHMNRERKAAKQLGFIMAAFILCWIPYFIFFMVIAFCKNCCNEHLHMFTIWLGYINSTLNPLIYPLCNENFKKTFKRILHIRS
T1 sequence (P50406 whole entry): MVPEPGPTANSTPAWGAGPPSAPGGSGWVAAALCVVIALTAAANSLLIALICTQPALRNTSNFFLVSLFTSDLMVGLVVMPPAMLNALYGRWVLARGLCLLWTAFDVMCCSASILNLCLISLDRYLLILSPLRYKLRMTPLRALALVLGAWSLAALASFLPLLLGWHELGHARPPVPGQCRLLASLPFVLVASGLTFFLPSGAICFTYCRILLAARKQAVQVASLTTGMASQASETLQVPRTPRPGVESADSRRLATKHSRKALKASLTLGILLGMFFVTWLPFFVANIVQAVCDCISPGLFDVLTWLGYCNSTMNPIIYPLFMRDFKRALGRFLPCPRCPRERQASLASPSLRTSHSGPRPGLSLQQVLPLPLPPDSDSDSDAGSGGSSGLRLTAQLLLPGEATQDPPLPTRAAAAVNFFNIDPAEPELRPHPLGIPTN

| Structure (SMILES) | inhibition at 0.1 µM [1] [%] | inhibition at 0.1 µM [2] [%] |
| --- | --- | --- |
| Cc1ccc2c(c1)c1c(n2C)C(C)(CCc2nc(-c3ccccc3)cs2)CN(C)C1 (stereo not shown) [Compound 48] | 22 | 89 |
| C#CCC1(C)CN(C)Cc2c1n(C)c1ccc(C)cc21 (stereo not shown) [Compound 47, 2,4,5,8-tetramethyl-4-(prop-2-ynyl)-2,3,4,5-tetrahydro-1H-pyrido[4,3-b]indole] | 14 | 49 |
